# Test results as given in patent US20110039762A1, “TARGETED ANTIMICROBIAL MOIETIES” (C3 JIAN, INC., priority 2009, published 2011).
# “Also recorded” adds a separate entry of the source. Square brackets hold non-standard residues; d marks the D form. Ends that are not written are not given here. Aib = CC(C)(N)C(=O)O
# System: microorganisms (e.g., bacteria, yeasts, fungi)
# Test: Targeting peptide binding to target microorganisms (Table 3)
# Details: microorganism the targeting peptide binds; binding in aqueous buffers varied by peptide solubility, preferably 1x PBS
row,Substance,Target(s)
1,1T-24 (EEAEEKLAEVSQAVKRLVR; Peptide with targeting and/or antimicrobial activity) [Peptide 1T-24],P. aeruginosa
2,1T-20 (PALVDLSNKEAVWAVLDDHS; Peptide with targeting and/or antimicrobial activity) [Peptide 1T-20],S. mutans; also recorded: P. aeruginosa
3,1T-82 (FGVGVGIALFMAGYAIGKDLRKKFGKSC; Peptide with targeting and/or antimicrobial activity) [Peptide 1T-82],S. pneumoniae
4,1T-55 (NHKTLKEWKAKWGPEAVESWATLLG; Peptide with targeting and/or antimicrobial activity) [Peptide 1T-55],C. xerosis; also recorded: P. aeruginosa
5,1T-304 (STAGEASRRTASEASRRTAAKLRG; Peptide with targeting and/or antimicrobial activity) [Peptide 1T-304],P. gingivalis
6,1T-95 (GHLLRVGGRVGGVGGVAGACAQPFGGQ; Peptide with targeting and/or antimicrobial activity) [Peptide 1T-95],S. gordonii; also recorded: S. mitis; also recorded: S. mutans; also recorded: S. oralis; also recorded: S. sanguinis
7,1T-47 (VIKISVPGQVQMLIP; Peptide with targeting and/or antimicrobial activity) [Peptide 1T-47],S. mutans; also recorded: S. epidermidis; also recorded: P. aeruginosa
8,1T-54 (RWVSCNPSWRIQ; Peptide with targeting and/or antimicrobial activity) [Peptide 1T-54],S. epidermidis; also recorded: C. xerosis; also recorded: C. striatum; also recorded: P. aeruginosa
9,1T-237 (EDPVPNHFTLRRNKKEKPSKS; Peptide with targeting and/or antimicrobial activity) [Peptide 1T-237],S. sanguinis
10,1T-39 (FGFCVWMYQLLAGPPGPPA; Peptide with targeting and/or antimicrobial activity) [Peptide 1T-39],S. mutans; also recorded: P. aeruginosa
11,1T-64 (QTVHHIHMHVLGQRQMHWPPG; Peptide with targeting and/or antimicrobial activity) [Peptide 1T-64],S. aureus; also recorded: S. epidermidis; also recorded: C. jeikeium; also recorded: C. xerosis; also recorded: C. striatum; also recorded: P. aeruginosa
12,PF-050 (SYYLKRREEKGK; Peptide with targeting and/or antimicrobial activity),S. epidermidis; also recorded: M. luteus; also recorded: E. coli; also recorded: C. jeikeium
13,1T-61 (HATLLPAVREAISRQLLPALVPRG; Peptide with targeting and/or antimicrobial activity) [Peptide 1T-61],P. aeruginosa
14,1T-49 (SLVRIHDQQPWVTRGAFIDAARTCS; Peptide with targeting and/or antimicrobial activity) [Peptide 1T-49],S. aureus; also recorded: S. epidermidis; also recorded: C. jeikeium; also recorded: P. aeruginosa
15,1T-11 (RISE; Peptide with targeting and/or antimicrobial activity) [Peptide 1T-11],S. mutans; also recorded: S. epidermidis; also recorded: P. aeruginosa
16,1T-109 (VTTNVRQGAGS; Peptide with targeting and/or antimicrobial activity) [Peptide 1T-109],A. naeslundii; also recorded: S. epidermidis; also recorded: S. gordonii; also recorded: S. mitis; also recorded: S. mutans; also recorded: S. oralis; also recorded: S. salivarious; also recorded: S. sanguinis
17,1T-15 (DVILRVEAQ; Peptide with targeting and/or antimicrobial activity) [Peptide 1T-15],S. mutans
18,1T-91 (TSVRPGAAGAAVPAGAAGAAGAGWRWP; Peptide with targeting and/or antimicrobial activity) [Peptide 1T-91],S. mitis; also recorded: S. mutans; also recorded: S. oralis; also recorded: S. sanguinis
19,1T-217 (MLSNVLSRSVVSPNVDIPNSMVILSPLLISISNYH; Peptide with targeting and/or antimicrobial activity) [Peptide 1T-217],F. nucleatum; also recorded: S. sanguinis
20,1T-68 (GGTKEIVYQRG; Peptide with targeting and/or antimicrobial activity) [Peptide 1T-68],S. mutans; also recorded: S. aureus; also recorded: C. jeikeium; also recorded: C. xerosis; also recorded: C. striatum; also recorded: P. aeruginosa

# Same assay, conditions: microorganism(s) the targeting peptide binds; binding in aqueous buffers depending on peptide solubility, preferably 1x PBS
row,Substance,Target(s)
1,PF-364 (LVNGIKI; Peptide with targeting and/or antimicrobial activity),S. epidermidis; also recorded: B. fragilis; also recorded: P. aeruginosa; also recorded: C. jeikeium; also recorded: C. jejuni
2,PF-240 (RITEVPPDEHSDR; Peptide with targeting and/or antimicrobial activity),S. mutans; also recorded: E. coli
3,PF-351 (YLFFKGKKVAEEEATKDEVKR; Peptide with targeting and/or antimicrobial activity),S. mutans
4,PF-150 (EIQAKGTG; Peptide with targeting and/or antimicrobial activity),S. epidermidis and MRSA
5,PF-194 (MKGNKLATAHEQPVKNSAPPL; Peptide with targeting and/or antimicrobial activity),C. jeikeium
6,PF-247 (ETAASETH; Peptide with targeting and/or antimicrobial activity),S. epidermidis
7,PF-263 (NLKKCPC; Peptide with targeting and/or antimicrobial activity),S. epidermidis; also recorded: M. luteus; also recorded: A. baumannii
8,PF-239 (PKHNVVTGVSVDLDYKP; Peptide with targeting and/or antimicrobial activity),S. mutans; also recorded: E. coli
9,PF-326 (VIVGNLGAQKEKRNDTPISAKKDIMGDKTVRVRADLHH; Peptide with targeting and/or antimicrobial activity),S. mutans; also recorded: E. coli
10,PF-320 (DSGYYALLENKEERVVWDGEVVANNIFNNLWIVVNKVKTG; Peptide with targeting and/or antimicrobial activity),S. mutans; also recorded: E. coli
11,PF-236 (KEIRTATVAELNAKRRLTSAEQALAEVS; Peptide with targeting and/or antimicrobial activity),S. mutans; also recorded: S. epidermidis; also recorded: E. coli; also recorded: C. albicans; also recorded: S. pneumoniae; also recorded: E. faecalis
12,PF-169 (APGSAADSPRSRADD; Peptide with targeting and/or antimicrobial activity),S. epidermidis; also recorded: E. coli; also recorded: C. albicans; also recorded: E. faecalis; also recorded: C. jeikeium
13,PF-238 (RNAVVVTEATFPKYEEEITNYLNRRFGEDWSLKLEKCSVA; Peptide with targeting and/or antimicrobial activity),S. mutans and S. epidermidis and E. coli and P. aeruginosa and C. albicans and MRSA and S. pneumoniae and E. faecalis
14,PF-333 (YMTKKLVEMAEQQMAGKSNR; Peptide with targeting and/or antimicrobial activity),S. mutans
15,PF-281 (SYNTYYNKLIHGQRTPDGM; Peptide with targeting and/or antimicrobial activity),S. mutans; also recorded: E. coli
16,PF-308 (QQYLILDRM; Peptide with targeting and/or antimicrobial activity),C. difficile
17,PF-181 (GIAPRRNEWGAVGGR; Peptide with targeting and/or antimicrobial activity),S. epidermidis and M. luteus and E. coli and MRSA and E. faecalis and C. jeikeium

# Same assay, conditions: microorganism(s) the targeting peptide binds; peptide binding conducted in aqueous buffers varied by peptide solubility, preferably 1x PBS
row,Substance,Target(s)
1,PF-498 (MSEEEEVSEKVYNYLRRNEFFEVRKEEFSA; Peptide with targeting and/or antimicrobial activity),S. mutans; also recorded: E. coli
2,PF-495 (KGIYKKRTY; Peptide with targeting and/or antimicrobial activity),S. mutans; also recorded: E. coli
3,PF-489 (KVDRVSTTITEKIK; Peptide with targeting and/or antimicrobial activity),S. mutans
4,PF-481 (DELYEIMDKVIEEFNKDIEQNNNNGNNEDLTENKIN; Peptide with targeting and/or antimicrobial activity),C. jeikeium
5,PF-412 (TSGWLGQLEQ; Peptide with targeting and/or antimicrobial activity),M. luteus; also recorded: E. coli; also recorded: C. albicans; also recorded: C. jeikeium; also recorded: C. jejuni

# Same assay, conditions: peptide binding in aqueous buffers varied by peptide solubility; preferably 1x PBS
row,Substance,Target(s) (microorganisms bound by the targeting peptide)
1,PF-783 (FTSEVRGVFTYRVNKAGLITNMRGYWNLDMMTFGNQE; Peptide with targeting and/or antimicrobial activity),Mycobacteria spp.
2,PF-C008 (AQPRRTWLVNFGEVPSPGLTNDGMPDH; Peptide with targeting and/or antimicrobial activity),A. naeslundii
3,PF-C273 (KNMLKRRMKQKRLFDEEDRLRVLSKYTKSYY; Peptide with targeting and/or antimicrobial activity),A. naeslundii; also recorded: P. gingivalis; also recorded: S. mutans; also recorded: T. denticola
4,PF-793 (YTQ[Aib]NNASAYAMLLTNKDTVP),S. mutans
5,PF-727 (AYARCRHDYPFTLGQMQTH; Peptide with targeting and/or antimicrobial activity),S. mutans; also recorded: E. coli
6,PF-S023 (MAEDERRALKRRTNRGRTRTRKRITV; Peptide with targeting and/or antimicrobial activity),S. epidermidis and MRSA
